Measured values published in publication PMC9030254, “Target Hopping from Protein Kinases to PXR: Identification of Small-Molecule Protein Kinase Inhibitors as Selective Modulators of Pregnane X Receptor from TüKIC Library” (Cells, 2022).

Experiments:
Format in all cases: biochemical
[1] = system: 335 wild-type protein kinases; experiment: Kinase inhibition profiling, selectivity score
Procedure: (§1) The analysis was performed by ProQinase (Freiburg, Germany).

DMPK = target: T1, DMPK (Homo sapiens, UniProt Q09013); experiment: Kinase profiling
T1 construct: purchased ProQinase (Freiburg, Germany)
T1 sequence (Q09013 1-629): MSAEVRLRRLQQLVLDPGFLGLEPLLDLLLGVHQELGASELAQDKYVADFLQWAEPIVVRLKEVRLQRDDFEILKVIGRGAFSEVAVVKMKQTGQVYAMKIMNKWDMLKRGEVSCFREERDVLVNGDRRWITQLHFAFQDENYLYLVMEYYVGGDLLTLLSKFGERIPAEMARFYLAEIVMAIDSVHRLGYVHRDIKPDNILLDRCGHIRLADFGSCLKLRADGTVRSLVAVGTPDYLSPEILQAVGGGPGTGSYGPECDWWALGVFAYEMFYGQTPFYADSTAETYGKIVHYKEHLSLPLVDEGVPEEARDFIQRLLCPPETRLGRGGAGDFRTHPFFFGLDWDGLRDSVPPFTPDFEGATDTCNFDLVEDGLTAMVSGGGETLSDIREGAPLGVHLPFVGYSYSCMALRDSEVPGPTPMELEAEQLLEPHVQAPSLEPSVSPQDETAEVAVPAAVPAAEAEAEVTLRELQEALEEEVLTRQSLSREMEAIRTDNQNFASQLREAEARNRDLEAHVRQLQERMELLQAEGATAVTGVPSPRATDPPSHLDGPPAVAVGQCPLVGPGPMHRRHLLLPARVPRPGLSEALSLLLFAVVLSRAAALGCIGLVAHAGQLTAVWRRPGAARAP
Procedure: as §1

EPHB2 = target: T2, EPHB2 (Homo sapiens, UniProt P29323); experiment: Kinase profiling
T2 construct: purchased ProQinase (Freiburg, Germany)
T2 sequence (P29323 19-1055): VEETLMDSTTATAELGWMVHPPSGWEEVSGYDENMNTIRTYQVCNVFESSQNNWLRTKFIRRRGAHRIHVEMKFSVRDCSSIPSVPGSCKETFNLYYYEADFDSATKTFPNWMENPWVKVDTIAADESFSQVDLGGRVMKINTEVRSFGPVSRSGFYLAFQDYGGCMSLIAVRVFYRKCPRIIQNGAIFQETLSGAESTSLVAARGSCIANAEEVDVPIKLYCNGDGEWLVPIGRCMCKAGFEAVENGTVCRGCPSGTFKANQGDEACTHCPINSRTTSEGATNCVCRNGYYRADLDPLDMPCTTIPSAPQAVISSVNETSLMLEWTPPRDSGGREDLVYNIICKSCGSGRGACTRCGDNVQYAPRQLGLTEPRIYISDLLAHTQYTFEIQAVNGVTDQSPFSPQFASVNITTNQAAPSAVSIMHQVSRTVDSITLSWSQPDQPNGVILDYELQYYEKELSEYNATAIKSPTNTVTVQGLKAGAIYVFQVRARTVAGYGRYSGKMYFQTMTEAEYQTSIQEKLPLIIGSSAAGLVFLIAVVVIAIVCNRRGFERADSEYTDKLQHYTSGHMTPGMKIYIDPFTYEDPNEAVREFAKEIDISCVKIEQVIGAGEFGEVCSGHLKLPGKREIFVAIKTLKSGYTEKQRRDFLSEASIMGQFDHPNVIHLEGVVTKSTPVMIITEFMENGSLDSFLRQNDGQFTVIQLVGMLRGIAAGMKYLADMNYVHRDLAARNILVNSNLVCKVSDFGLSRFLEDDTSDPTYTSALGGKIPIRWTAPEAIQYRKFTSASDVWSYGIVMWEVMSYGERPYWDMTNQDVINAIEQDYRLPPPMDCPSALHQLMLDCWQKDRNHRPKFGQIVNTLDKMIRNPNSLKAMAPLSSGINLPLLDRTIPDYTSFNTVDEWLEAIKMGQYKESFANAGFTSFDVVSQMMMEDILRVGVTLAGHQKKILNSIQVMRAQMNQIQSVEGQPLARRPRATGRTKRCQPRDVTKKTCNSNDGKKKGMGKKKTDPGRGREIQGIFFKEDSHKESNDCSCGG
Procedure: as §1

MYLK2 = target: T3, MYLK2 (Homo sapiens, UniProt Q9H1R3); experiment: Kinase profiling
T3 construct: purchased ProQinase (Freiburg, Germany)
Procedure: as §1

NEK9 = target: T4, NEK9 (Homo sapiens, UniProt Q8TD19); experiment: Kinase profiling
T4 construct: purchased ProQinase (Freiburg, Germany)
T4 sequence (Q8TD19 1-979): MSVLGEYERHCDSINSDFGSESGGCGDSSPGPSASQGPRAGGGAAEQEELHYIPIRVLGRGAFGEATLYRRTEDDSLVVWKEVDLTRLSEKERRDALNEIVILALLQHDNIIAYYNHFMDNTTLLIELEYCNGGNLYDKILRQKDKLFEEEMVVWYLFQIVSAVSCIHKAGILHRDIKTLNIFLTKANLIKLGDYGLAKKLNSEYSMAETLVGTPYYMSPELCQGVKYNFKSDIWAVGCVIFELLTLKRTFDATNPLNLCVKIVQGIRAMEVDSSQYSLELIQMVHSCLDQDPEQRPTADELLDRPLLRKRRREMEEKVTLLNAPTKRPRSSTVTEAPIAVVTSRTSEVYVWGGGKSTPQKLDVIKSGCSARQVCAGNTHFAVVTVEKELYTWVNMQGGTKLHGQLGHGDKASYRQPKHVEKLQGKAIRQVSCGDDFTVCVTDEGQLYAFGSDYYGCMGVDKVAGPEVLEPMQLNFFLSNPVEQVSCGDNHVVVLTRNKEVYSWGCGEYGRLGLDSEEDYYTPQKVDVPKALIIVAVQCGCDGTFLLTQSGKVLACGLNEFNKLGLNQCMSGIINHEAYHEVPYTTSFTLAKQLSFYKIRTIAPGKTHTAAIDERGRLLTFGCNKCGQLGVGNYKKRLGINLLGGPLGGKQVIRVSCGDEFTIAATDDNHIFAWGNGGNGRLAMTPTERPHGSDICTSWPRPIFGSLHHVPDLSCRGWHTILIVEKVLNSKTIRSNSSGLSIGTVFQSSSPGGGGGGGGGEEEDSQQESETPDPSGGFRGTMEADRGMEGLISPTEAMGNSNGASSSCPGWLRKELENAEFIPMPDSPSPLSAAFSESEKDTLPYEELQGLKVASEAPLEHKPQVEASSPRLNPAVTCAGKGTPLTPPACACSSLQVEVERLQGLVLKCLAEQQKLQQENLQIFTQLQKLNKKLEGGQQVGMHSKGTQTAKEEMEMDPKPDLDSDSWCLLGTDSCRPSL
Procedure: as §1

S6Kbeta = target: T5, S6Kbeta (Homo sapiens, UniProt Q9UBS0); experiment: Kinase profiling
T5 construct: purchased ProQinase (Freiburg, Germany)
Procedure: as §1

T3 sequence (Q9H1R3 whole entry): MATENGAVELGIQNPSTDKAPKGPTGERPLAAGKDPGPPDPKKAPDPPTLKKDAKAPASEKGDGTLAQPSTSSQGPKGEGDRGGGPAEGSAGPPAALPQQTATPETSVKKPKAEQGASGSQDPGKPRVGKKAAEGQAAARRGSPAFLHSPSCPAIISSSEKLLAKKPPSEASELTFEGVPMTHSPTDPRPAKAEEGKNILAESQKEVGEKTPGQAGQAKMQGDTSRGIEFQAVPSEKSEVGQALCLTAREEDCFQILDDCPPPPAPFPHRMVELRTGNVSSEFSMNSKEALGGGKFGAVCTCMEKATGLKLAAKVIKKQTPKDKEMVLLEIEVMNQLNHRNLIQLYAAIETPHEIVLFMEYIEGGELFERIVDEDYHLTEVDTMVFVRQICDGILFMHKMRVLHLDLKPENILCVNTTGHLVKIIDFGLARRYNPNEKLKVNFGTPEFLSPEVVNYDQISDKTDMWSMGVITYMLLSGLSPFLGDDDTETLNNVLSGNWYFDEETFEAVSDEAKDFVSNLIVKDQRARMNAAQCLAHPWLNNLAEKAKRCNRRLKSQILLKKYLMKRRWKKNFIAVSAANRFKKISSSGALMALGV
T5 sequence (Q9UBS0 whole entry): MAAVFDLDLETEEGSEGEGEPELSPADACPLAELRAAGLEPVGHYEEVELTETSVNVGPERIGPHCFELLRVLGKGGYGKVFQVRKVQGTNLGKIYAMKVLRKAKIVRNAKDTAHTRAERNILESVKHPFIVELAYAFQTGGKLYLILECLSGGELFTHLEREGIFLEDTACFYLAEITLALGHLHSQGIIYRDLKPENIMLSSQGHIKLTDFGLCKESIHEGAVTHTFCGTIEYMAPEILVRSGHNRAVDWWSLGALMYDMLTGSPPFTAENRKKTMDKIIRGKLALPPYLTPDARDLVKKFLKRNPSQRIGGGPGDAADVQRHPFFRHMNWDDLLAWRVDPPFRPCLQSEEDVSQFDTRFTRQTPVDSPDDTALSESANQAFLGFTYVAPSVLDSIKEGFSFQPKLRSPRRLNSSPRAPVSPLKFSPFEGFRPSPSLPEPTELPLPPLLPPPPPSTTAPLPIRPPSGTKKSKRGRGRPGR

| SMILES | Selectivity Score (< 50 % residual activity) ([1]; 1.0E-05 M) | Selectivity Score (< 50 % residual activity) ([1]; 1.0E-06 M) | Residual activity (DMPK; 1.0E-05 M) | Residual activity (DMPK; 1.0E-06 M) | Residual activity (EPHB2; 1.0E-05 M) | Residual activity (EPHB2; 1.0E-06 M) | Residual activity (MYLK2; 1.0E-05 M) | Residual activity (MYLK2; 1.0E-06 M) | Residual activity (NEK9; 1.0E-05 M) | Residual activity (NEK9; 1.0E-06 M) | Residual activity (S6Kbeta; 1.0E-05 M) | Residual activity (S6Kbeta; 1.0E-06 M) |
| --- | --- | --- | --- | --- | --- | --- | --- | --- | --- | --- | --- | --- |
| O=C(Cc1ccccc1)Nc1ccc(F)c(Nc2ccc3c(c2)CCCCC3=O)c1 [Compound 100] | 0.015 | 0.003 | 100 % of control | 101 % of control | 86 % of control | 93 % of control | 82 % of control | 93 % of control | 93 % of control | 86 % of control | 85 % of control | 96 % of control |
| O=C(Nc1ccc(F)c(Nc2ccc3c(c2)CCCCC3=O)c1)c1cccc(F)c1 [Compound 109] | 0.024 | 0.012 | 94 % of control | 99 % of control | 84 % of control | 86 % of control | 79 % of control | 85 % of control | 81 % of control | 96 % of control | 96 % of control | 102 % of control |
